This is an account of results in US20220106304A1, “Transcription Factor BRN2 Inhibitory Compounds as Therapeutics and Methods for Their Use” (The University of British Columbia, priority 2018, published 2022).

Molecules are shown by their SMILES.

The inhibition is the change of the read-out against control, counted positive when it falls.

For one data set, the target named is T1, BRN2 (Homo sapiens, UniProt P20265).
T1 sequence (P20265 1-443): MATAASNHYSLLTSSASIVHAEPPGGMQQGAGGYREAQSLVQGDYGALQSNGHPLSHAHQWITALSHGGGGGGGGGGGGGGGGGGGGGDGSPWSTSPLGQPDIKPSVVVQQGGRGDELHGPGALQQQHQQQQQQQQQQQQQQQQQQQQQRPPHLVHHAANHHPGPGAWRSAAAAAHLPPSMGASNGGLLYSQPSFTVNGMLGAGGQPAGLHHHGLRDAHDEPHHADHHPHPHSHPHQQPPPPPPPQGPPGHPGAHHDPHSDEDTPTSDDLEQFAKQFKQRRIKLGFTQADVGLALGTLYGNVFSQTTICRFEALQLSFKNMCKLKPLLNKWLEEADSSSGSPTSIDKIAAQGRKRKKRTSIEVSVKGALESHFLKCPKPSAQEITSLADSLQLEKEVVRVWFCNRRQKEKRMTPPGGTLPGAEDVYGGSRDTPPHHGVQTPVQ
Kind of data set: cell-based. Particulars: negative = activation; for inhibition at 10 µM: read-out: % BRN2 Inhibition (10 μM), 10 μM compound, 24 hours, 42D^ENZR cells stably expressing BRN2-luciferase reporter; for inhibition at 30 µM: read-out: % BRN2 Inhibition (30 μM), 30 μM compound, 24 hours, 42D^ENZR cells stably expressing BRN2-luciferase reporter. For orientation: In a reporter assay the amount or activity of a reporter protein is the signal.

The subject of data set [1] is 42D^ENZR cells vs 16D^CRPC cells. Kind of data set: Cell proliferation specificity, 42D^ENZR cells vs 16D^CRPC cells. The class given is cell-based. Conditions: 42D cells express BRN2, 16D cells do not; some also LNCaP; result in words. How it is done: Plate 42DENZR (˜7000 cells per well) and 16D^CRPC (˜5000 cells per well) cells in 96 well plate with a volume of 100 μL per well. • 2. Next day 1 mL aliquots of media are combined with 3× the desired concentration of compounds. The aliquots are vortexed and 50 μL of each 3× concentration is added to the 100 μL of media in each well to give the ix desired concentration.
The following are the desired concentrations:
0, 10 nM, 100 nM, 500 nM, 1 μM, 2.5 μM, 5 μM, 10 μM, 15 μM, […], 30 μM. • 3. Approximately 72 hours later, 17 μL of 10% Glutaraldehyde is added to each well and plates are placed on a shaker for 20-30 minutes. • 4. Media is washed off the fixed cells by slow submersion in a container of water. Then the water is removed by tapping the plate upside down. • 5. 75 μL of Crystal Violet™ solution is added into the 96 well plates and placed on a shaker for ˜30 minutes. • 6. Media is washed off the fixed cells by repeated slow submersion in a container of water and the plates are allowed to dry over-night. • 7. Next day, 75 μL of Sorensen Solution is accurately pipetted into each well. The plates placed on a shaker for ˜30 minutes. • 8. Absorbance is measured in the plate at 590 nm.
Compounds that Show Specificity Towards 42D^ENZR Cells Vs 16D^CRPC Cells Progress to Step 4.
(§1) Where data is not available “na” is inserted.

Data set [2] can be described thus: Liver microsome metabolic stability, HLM. The class given is in vitro ADME. Particulars: HLM (first of two values), 1 μM compound, 0.25 mg/mL protein; for Met Stab % (60 mins HLM/MLM): percent remaining at 60 min, 1 mM NADPH; for half-life at 1 µM: human, liver microsomes, pH 7.4, read-out: T1/2 in (mins HLM/MLM). How it is done:
(§2) Potassium phosphate buffer (Kphos) was prepared by adding 0.647 g potassium phosphate monobasic (KH2PO4) and 3.527 g potassium phosphate dibasic ([…]) to 400 mL of Milli-Q water. pH of the buffer was adjusted to 7.4 and volume was made up to 500 mL.
(§3) Microsomes (20 mg/mL) were diluted in KH2PO4 buffer to prepare a concentration of 0.357 mg/mL.
(§4) Stock solutions of BRN2 inhibitors were prepared in DMSO at a concentration of 1 mM
(§5) A stock solution of 3.33 mM NADPH (3.33×) was prepared by dissolving appropriate amount of NADPH in KH2PO4 buffer.
(§6) Total Incubation volume: 100 μL
(§7) Compound concentration: 1 μM
(§8) Protein Concentration: 0.25 mg/mL
(§9) An 1120 μL aliquot of Kphos buffer (50 mM, pH 7.4) containing liver microsomes (0.357 mg/mL) were added to individual 2 mL tubes (final concentration 0.25 mg/mL). Test compounds (1 mM) and positive controls were directly spiked into respective tubes to prepare a concentration of 1.428 μM (final concentration 1 μM). From the above mix, 70 μL was added to individual wells of 96 well reaction plates and pre-incubated in a 37° C. water bath for 5 min. All the reactions were initiated by adding 30 μL of 3.33 mM NADPH (final concentration 1 mM). Reactions without NADPH and buffer controls (minus NADPH) at 0 min and 60 min were also incubated to rule out non-NADPH metabolism or chemical instability in the incubation buffer. All reactions were terminated using 100 μL of ice-cold acetonitrile containing internal standard at 0, 5, 15, 30 and 60 min. The plates were centrifuged at 4000 RPM for 15 min and 100 μL aliquots were submitted for analysis by LC-MS/MS.
(§10) Samples were monitored for parent compounds disappearance in MRM mode using LC-MS/MS.
(§11) The percent remaining of test compounds and positive control in each sample was determined by considering peak area ratio in the 0 minute sample as 100%. The Half-life of compounds in microsomes is calculated by formula:
(§12) Half-life (t½) (min)=0.693/k, where k is gradient of line determined from plot of peak area ratio (compound peak area/internal standard peak area) against time.
(§13) In vitro intrinsic clearance (CL'int) (units in mL/min/kg) was calculated using the formula.
(§14) [formula] • For liver microsomes, scaling factor used was 45 mg microsomal protein per gm liver. • Indicates liver weight (gm) which varies species wise. For mice the liver weights are 90 gm.
as §1

Data set [3] in a line: Liver microsome metabolic stability, MLM. The class given is in vitro ADME. Conditions: MLM (single value or second of two), 1 μM compound, 0.25 mg/mL protein; for Met Stab % (60 mins HLM/MLM): percent remaining at 60 min, 1 mM NADPH; for half-life at 1 µM: mouse, liver microsomes, pH 7.4, read-out: T1/2 in (mins HLM/MLM). How it is done: as §2, §3, §4, §5, §6, §7, §8, §9, §10, §11, §12, §13, §14, §1
(In general: Liver microsomes are a subcellular fraction often used to study metabolism.)

In the case of `Cc1c(-c2csc(-c3ccccn3)n2)oc2ccccc12` [VPC-18-13], at BRN2, the inhibition at 10 µM worked out at 98.3% and the inhibition at 30 µM is 99.9%. In data set [1], the specificity entry is “VPC-18-13 (specific)”.
For `c1coc(-c2nc(-c3cc4ccccc4o3)cs2)c1` [VPC-18-14] the same measures were 95.9%, 96.6% and “VPC-18-14 (specific)”.
Regarding `c1ccc(-n2cc(-c3nc4ccccc4o3)cn2)cc1` [VPC-18-18], on BRN2, the inhibition at 10 µM is 82.8% and the inhibition at 30 µM amounted to 87%. For the same molecule, the specificity entry in data set [1] was “VPC-18-18 (specific- affects 42D but not 16D)”.
Regarding `Cn1c(-c2ccc(-c3ccccc3)o2)nc2ccc(Cl)cc21` [VPC-18-42, 6-Chloro-1-methyl-2-(5-phenylfuran-2-yl)-1H-benzo[d]imidazole], on BRN2, the inhibition at 10 µM was 77.3% and the inhibition at 30 µM is 76.8%. Moreover, in data set [2], the “Met Stab % (60 mins HLM/MLM)” value came out at 15% and the half-life at 1 µM stood at 23 min. Moreover, in data set [3], the “Met Stab % (60 mins HLM/MLM)” value amounted to 1% and the half-life at 1 µM was found to be 11 min.
On to `Cn1c(-c2csc(-c3ccccc3F)n2)nc2ccc(F)cc21` [VPC-18-45, 4-(6-Fluoro-1-methyl-1H-benzo[d]imidazol-2-yl)-2-(2-fluorophenyl)thiazole], for which, on BRN2, the inhibition at 10 µM is 7.53% and the inhibition at 30 µM turned out to be 47.2%. Besides, in data set [2], the “Met Stab % (60 mins HLM/MLM)” value came out at 35% and the half-life at 1 µM turned out to be 42 min. Besides, in data set [3], the “Met Stab % (60 mins HLM/MLM)” value is given as 22% and the half-life at 1 µM was 32 min.
As for `Cn1c(-c2ccc(-c3ccccc3)o2)nc2ccc(S(N)(=O)=O)cc21` [VPC-18-47, 1-Methyl-2-(5-phenylfuran-2-yl)-1H-benzo[d]imidazole-6-sulfonamide], on BRN2, the inhibition at 10 µM stood at 39.8% and the inhibition at 30 µM is 82.1%. Moreover, in data set [2], the “Met Stab % (60 mins HLM/MLM)” value was 54% and the half-life at 1 µM is over 60 min. In data set [3], the “Met Stab % (60 mins HLM/MLM)” value worked out at 53% and the half-life at 1 µM was over 60 min.
As to `O=[N+]([O-])c1ccc2nc(-c3csc(-c4ccco4)n3)[nH]c2c1` [VPC-18-48, 2-(Furan-2-yl)-4-(6-nitro-1H-benzo[d]imidazol-2-yl)thiazole], at BRN2, the inhibition at 10 µM is -6.56% and the inhibition at 30 µM amounted to 91.2%. In data set [2], the “Met Stab % (60 mins HLM/MLM)” value is 9% and the half-life at 1 µM is 17 min. For the same molecule, in data set [3], the “Met Stab % (60 mins HLM/MLM)” value amounted to 2% and the half-life at 1 µM was 10 min.
Turning to `Cc1c(-c2csc(-c3ccco3)n2)oc2ccccc12` [VPC-18-53, 2-(Furan-2-yl)-4-(3-methylbenzofuran-2-yl)thiazole], on BRN2, the inhibition at 10 µM turned out to be 78.1% and the inhibition at 30 µM came out at 84.5%. For the same molecule, in data set [2], the “Met Stab % (60 mins HLM/MLM)” value came to 39% and the half-life at 1 µM was determined as 42 min. For the same molecule, in data set [3], the “Met Stab % (60 mins HLM/MLM)” value is recorded as 2% and the half-life at 1 µM is 2 min.
As for `Clc1ccc2cc(-c3csc(-c4ccco4)n3)oc2c1` [VPC-18-66, 4-(6-chlorobenzofuran-2-yl)-2-(furan-2-yl)thiazole], at BRN2, the inhibition at 10 µM is 82% and the inhibition at 30 µM was found to be 94%. Moreover, in data set [3], the “Met Stab % (60 mins HLM/MLM)” value amounted to 31% and the half-life at 1 µM came to 42 min. Besides, the specificity entry in data set [1] was “VPC-18-66 (specific- no effect on LNCaP and 16D)”.
Regarding `c1ccc2oc(-c3csc(-c4ccoc4)n3)cc2c1` [VPC-18-76, 4-(benzofuran-2-yl)-2-(furan-3-yl)thiazole], at BRN2, the inhibition at 10 µM was found to be 96.3% and the inhibition at 30 µM amounted to 94.9%. In addition, in data set [3], the “Met Stab % (60 mins HLM/MLM)” value is 1% and the half-life at 1 µM was 9 min. In addition, in data set [1], the specificity entry was “VPC-18-76 (specific)”.
For `c1coc(-c2nc(-c3coc4ccccc34)cs2)c1` [VPC-18-81, 4-(benzofuran-3-yl)-2-(furan-2-yl)thiazole] the same measures were 97%, 99%, 2%, 11 min and “VPC-18-81 (specific to 42D)”.
As to `Clc1ccc2cc(-c3coc(-c4ccc[nH]4)n3)oc2c1` [VPC-18-127, 4-(6-chlorobenzofuran-2-yl)-2-(1H-pyrrol-2-yl)oxazole], in data set [3], the “Met Stab % (60 mins HLM/MLM)” value is given as 16% and the half-life at 1 µM came out at 22 min. Besides, in data set [1], the specificity entry is “VPC-18- 127 (specific)”.
With `Clc1ccc2cc(-c3nccc(-c4ccc[nH]4)n3)oc2c1` [VPC-18-133, 2-(6-chlorobenzofuran-2-yl)-4-(1H-pyrrol-2-yl)pyrimidine], in data set [3], the “Met Stab % (60 mins HLM/MLM)” value is recorded as 1% and the half-life at 1 µM is 8 min. Further, the specificity result in data set [1] is listed as “VPC-18- 133 (specific)”.
As to `Cn1cccc1-c1nc(-c2cc3ccc(Cl)cc3o2)cs1` [VPC-18-139, 4-(6-chlorobenzofuran-2-yl)-2-(1-methyl-1H-pyrrol-2-yl)thiazole], in data set [3], the “Met Stab % (60 mins HLM/MLM)” value was 23% and the half-life at 1 µM is 30 min. Moreover, the specificity result in data set [1] is listed as “VPC-18- 139 (specific)”.
For `FC(F)(F)c1ccc2cc(-c3nccc(-c4ccc[nH]4)n3)oc2c1` [VPC-18-140, 4-(1H-pyrrol-2-yl)-2-(6-(trifluoromethyl)benzofuran-2-yl)pyrimidine], in that order: 2%, 10 min and “VPC-18- 140 (specific)”.
`Clc1ccc2cc(-c3nccc(-c4ccco4)n3)oc2c1` [VPC-18-141, 2-(6-chlorobenzofuran-2-yl)-4-(furan-2-yl)pyrimidine]: in data set [3], the “Met Stab % (60 mins HLM/MLM)” value is listed as 3% and the half-life at 1 µM was 13 min. Moreover, the specificity result in data set [1] was “VPC-18- 141 (specific)”.
As to `Cn1c(-c2ccc(-c3ccccc3)o2)nc2ccccc21` [VPC-18], on BRN2, the inhibition at 10 µM stood at 97.6% and the inhibition at 30 µM stood at 99.4%. In addition, the specificity entry in data set [1] was “VPC-18 (42D not 16D)”.
